Like-named read-outs stand apart in the source and are kept apart here.
Legend:
[1] = tested on: panel of 60 human cancer cell lines; assay: NCI in-vitro cytotoxicity screen, whole panel; type: cell-based; conditions: for range of activity: 48 hour exposure
[2] = tested on: human tumor cells in hollow fibers; assay: NCI hollow fiber assay, all cell lines; type: in vivo, mice
supercoil pBR322 DNA = assay: pBR322 strand nicking assay; type: biochemical
From the text: When a compound is covalently bound to a purine-N3 in the minor groove of DNA, the adduct is thermally unstable. It is readily hydrolyzed to produce a DNA strand (2). Consequently, the formation of adenine-N3 (or guanine-N3) alkylation adducts can be detected by thermal conversion of supercoil pBR322 DNA (Form I) to nicked open […] DNA (Form II) as a result of the formation of single strand breaks. These two different forms of pBR322 DNA can then be separated by agarose gel electrophoresis, and the relative amounts of each form can be determined by densitometry of methylene blue stained gels (39). The supercoil form of pBR322 DNA is more compact than the open circular form, and as a result, moves further down the gel towards the positive electrode.
Solutions of the drugs dissolved in N,N-dimethylacetamide (DMA) were made at 0.10 mM concentrations, and were always stored in the refrigerator.
Tris buffer solution at pH 7.4 at 25° C. and 0.010 M was made from Tris HCl (0.661 g), Tris base (0.097 g) diluted to a 100 mL volume with distilled water. Then EDTA-Na2—2H2O (0.186 g) and KCl (3.72 g) were added to the Tris HCl solution and diluted to 500 mL volume with distilled water. A TBE solution was prepared from Carolina Lot #4020602 Electrophoresis buffer 20 times TBE diluted to a volume of three liters with deionized water. The agarose gel was prepared from agarose low EEO (0.32 g) dissolved in TBE buffer (40 mL) and heated in a microwave oven until dissolved.
The pBR322 DNA (100 μg/100 μL) from Pharmacia Biotech was in a buffer (10 mM Tris-HCl pH 7.5, and 1 mM EDTA). The DNA was prepared from plasmid DNA isolated from E. coli HB101 by the alkaline lysate procedure and was purified by Sepharcryl S-100 chromatography followed by CsCl-ethidium bromide centrifugation.
The alkylation samples were prepared by adding DNA (10 μL), Tris-EDTA KCl buffer (18 μL), and compound (2 μL) at 100 μM concentration to Eppendorf tubes. The samples were incubated at 40° C. for 40 h. The samples were removed then centrifuged for one minute. 10% SDS (sodium dodecylsulfate) (2 μL), 50% glycerol (5 μL), and bromophenol blue (2 μL) were added to the samples. The contents of the tubes were mixed with a Vortex mixer then centrifuged to consolidate the samples. The agarose gel was covered with TBE-buffer in the chamber. The samples were loaded onto the agarose gel and run at 40 V for three hours, or when the band were about three/fourths of the way down the gel.
The gel was removed and stained with methylene blue (45 min). At this time, the stained gel was placed in a water chamber overnight. The intensities of each band i.e. Form I and II were determined using densitometry.

plasmid pBR322 DNA = assay: Taq polymerase stop assay; type: biochemical
P815 mastocytoma cells = assay: MTT cytotoxicity on P815 cells; type: cell-based, murine; conditions: 72 hr incubation
Experimental: (§1) The P815 and L1210 cell lines were obtained from American Type Tissue Culture Collection (ATCC). The cell lines were grown in Delbecco's Modified Eagle Medium (DMEM, Atlanta Biologicals) supplemented with 10% fetal bovine serum, Hepes Buffer (2 mM, Mediatech Cellgro, 25-060-Cl), L-Glutamine (2 mM, Mediatech Cellgro), and penicillin/streptomycin (50,000 units penicillin, 50,000 […], Atlanta Biologicals). Cells were maintained at 37° C. in a 5% humidified CO2 atmosphere. Cultured cells were counted using a hemocytometer and resuspended in fresh DMEM at a concentration of 8×10^5 cells/mL. This cell suspension (100 μL) was added to 96 well flat -bottom cell culture plates. At this concentration, 80,000 cells were seeded in each well. Drug solutions (dissolved in DMSO and diluted in DMEM) were added to each well (5 μL/well) resulting in final concentrations ranging from 1×10^−4 to 1×10^−12 M. Quadruplicate wells were prepared for each drug concentration. The plates were incubated for 72 hr at 37° C. in a 5% CO2 atmosphere. MTT (3-(4,5-dimethylthiazol-2-yl)-2,5-diphenyl tetrazolium bromide) was dissolved in PBS (5 mg/ml). After the indicated cell incubation period, 10 μL of this stock MTT solution was added to each well and the plates were further incubated for 4 h at 37° C. in a 5% CO2 atmosphere. […] The contents of the well were mixed thoroughly by pipetting the cell suspension up and down and the plates were allowed to sit at room temperature for 15 min in order to allow for full development of the purple color. The plates were read on a Dynatech Plate Reader, utilizing Dynex Revelation 3.2 software, with a test wavelenth of 570 nm and a reference wavelength of 630 nm.

L1210 leukemia cells = assay: MTT cytotoxicity on L1210 cells; type: cell-based, murine; conditions: 72 hr incubation
Experimental: as §1

[3] = tested on: K562 human chronic myeloid leukemia cells; assay: MTT cytotoxicity on K562 cells; type: cell-based
[4] = tested on: human colon adenocarcinoma cell line, LS 174T; assay: SRB cytotoxicity on LS174T cells; type: cell-based
Experimental: Cells were seeded in 96-well microtiter plates at densities of 1000 cells/well. The optimal seeding density was determined to ensure exponential growth in control wells throughout the experimental period and to obtain a linear relationship between absorbance at 492 nm and cell number when analyzed by the sulforhodamine B (SRB) assay (43). 24 hours after seeding the cells were incubated for 1 hour or continuously for 3 days with the drugs (concentration range 0.01 to 500 μM). The cells were washed once and then incubated in drug free medium for 6 days. At the end of the incubation cell growth was determined by the SRB assay, which quantifies viable cells by measuring their total cellular protein content. […] Similar studies were conducted against the growth of PC3 (human prostate cancer cells) and MCF-7 (human breast cancer cells).

[5] = tested on: mouse L1210 leukemia cells; conditions: cited from earlier work; for IC50 values (range in words): growth of mouse L1210 leukemia cells in culture
L1210 leukemia = conditions: carzelesin 400 μg/kg, adozelesin 100 μg/kg; cited from earlier work
[6] = mice; therapeutic doses; cited from earlier work
[7] = 0.1 mM compound, 40° C. for 40 h
[8] = Homo sapiens, K562, 1 h, read-out: IC50 1 hour exposure

## COc1cc2cc(C(=O)Nc3cc(N)c4ccccc4c3CCCl)[nH]c2c(OC)c1OC [Compound 25, 4-(2-chloroethyl)-3-(5,6,7-trimethoxyindole-2-carboxamido)-1-naphthylamine]
[1]
  range of activity: micromolar range
  activity against leukemia cells: none of these compounds showed much activity
  activity against melanoma cells: active
  activity against solid tumors cells: strong activity
[2]
  cell kill: cell kill observed
[2]; IP+SC
  composite score: 54
[2]; intraperitoneal fibers
  IP score: 46
[2]; subcutaneous fibers
  SC score: 8
Supercoil pBR322 DNA; [7]
  Form II DNA (%): quantitative
Plasmid pBR322 DNA
  covalent DNA AT sequence selectivity: preferentially at a five consecutive A(865)AAAA sequence

## N-[(N-(4-Aminobutyl)-N-methylpyrrole-4-(N-methylimidazole-2-carboxamido)-2-carboxamido)]-N-[5-(4-(2-chloroethyl)phenol-3-yl)benzofuran-2-carboxamido)]glutarodiamide hydrochloride [Compound 18]
P815 mastocytoma cells
  IC50: > 100 µM
L1210 leukemia cells
  IC50: > 100 µM
Supercoil pBR322 DNA
  Form II DNA (%): quantitative
Plasmid pBR322 DNA
  additional unique alkylation site: 3′-GCAACG-5′
  alkylation of the 5′-AAAAA sequence: did not alkylate
  alkylation selectivity (sequence): 3′-ATTT-5′

## CCCC(=O)Nc1cc(C(=O)Nc2cc(C(=O)Nc3ccc(O)cc3CCBr)n(C)c2)n(C)c1 [Compound 7, N-(2-(2-Bromoethyl)-4-hydroxyphenyl)-1-methyl-4-(1-methyl-4-butanamidopyrrole-2-carboxamido)pyrrole-2-carboxamide]
[3]; [8]
  IC50: > 100 µM
[3]; Homo sapiens, K562, 72 h, read-out: IC50 continuous exposure (3 days)
  IC50: 3.64 ± 0.05 µM
[3]; K562, one hour exposure
  activity in words: not active
[4]; Homo sapiens, 1 h, read-out: IC50 LS174T 1 hour exposure
  IC50: 237 µM
[4]; one hour exposure
  activity in words: not active

## Cl.Cn1cc(NC(=O)c2cccn2C)cc1C(=O)NCCCCNC(=O)CCCC(=O)Nc1ccc2oc(C(=O)Nc3cc(O)ccc3CCCl)cc2c1 [Compound 17]
Supercoil pBR322 DNA
  Form II DNA (%): quantitative
Plasmid pBR322 DNA
  alkylation of the 5′-AAAAA sequence: did not alkylate
  alkylation selectivity (sequence): 3′-ATTT-5′

## COc1cc2cc(C(=O)Nc3cc(N)ccc3CCCl)[nH]c2c(OC)c1OC [Compound 24, 4-(2-Chloroethyl)-3-(5,6,7-trimethoxyindole-2-carboxamido)aniline]
Supercoil pBR322 DNA; [7]
  Form II DNA (%): quantitative

## 4-(2-Bromoethyl)-3-[5-(5-benzofuran-2-carboxamido)indole-2-carboxamido]phenol [Compound 2]
[3]; K562 cells, continuous exposure (3 days), read-out: IC50 continuous exposure (3 days)
  IC50: 1.6 ± 0.9 µM
[3]; read-out: IC50 1 hour exposure, K562 cells, 1 hour exposure
  IC50: 23.8 ± 9.7 µM
Plasmid pBR322 DNA
  sequence selectivity: stronger sequence selectivity than 27
Plasmid pBR322 DNA; compared with chloro-compound 1
  efficiency in alkylating DNA: less efficient in alkylating DNA

## Cc1c[nH]c2c(O)cc3c(c12)[C@H](CCl)CN3C(=O)c1cc2cc(NC(=O)Nc3ccc4[nH]c(C(=O)N5C[C@@H](CCl)c6c5cc(O)c5[nH]cc(C)c65)cc4c3)ccc2[nH]1 [Bizelesin]
[5]
  IC50: 0.001 nM
  potency relative to (+)-CC1065: 20-30 times

## Cl.Cn1cc(NC(=O)c2cccn2C)cc1C(=O)NCCCCNC(=O)CCCC(=O)Nc1ccc2oc(C(=O)Nc3cc(O)ccc3CCCl)cc2c1 [Compound 17, N-[(N-(4-Aminobutyl)-N-methylpyrrole-4-(N-methylpyrrole-2-carboxamido)-2-carboxamido)]-N-[5-(4-(2-chloroethyl)phenol-3-yl)benzofuran-2-carboxamido)]glutarodiamide hydrochloride]
P815 mastocytoma cells
  IC50: 61 µM
L1210 leukemia cells
  IC50: 64 µM

## CCN(CC)c1ccc2cc(C(=O)Nc3ccc4[nH]c(C(=O)N5C[C@@H](CCl)c6c5cc(OC(=O)Nc5ccccc5)c5[nH]cc(C)c65)cc4c3)oc2c1 [carzelesin]
L1210 leukemia
  ILS: 150±8%
  survival: 2/6

## COc1cc2cc(C(=O)N3CC(CCl)c4c3cc(O)c3ccccc43)[nH]c2c(OC)c1OC (stereo not shown) [Compound 28, seco-CBI-trimethoxyindole, reference compound]
Plasmid pBR322 DNA
  covalent DNA AT sequence selectivity: preferentially at a five consecutive A(865)AAAA sequence

## COc1c2c(c3cc(C(=O)N4CCc5c4c(OC)c(O)c4[nH]c(C(=O)N6CC7C[C@@]78C6=CC(=O)c6[nH]cc(C)c68)cc54)[nH]c3c1O)CCN2C(N)=O (single isomer, unassigned; (+)) [(+)-CC1065]
[5]; L1210
  IC50: 0.02 nM
[5]
  IC50 values (range in words): pM range
[6]
  delayed lethality / delayed toxicity: delayed lethality

## COC(=O)c1cc2c([nH]1)C(=O)C=C1N(C(=O)c3cc4cc(OC)c(OC)c(OC)c4[nH]3)CC3CC123 (single isomer, unassigned; (+)) [DUMSA, (+)-duocarmycin SA]
[5]
  IC50 values (range in words): pM range
[6]
  delayed lethality / delayed toxicity: devoid of this toxic side effect

## COc1cc2cc(C(=O)Nc3cc(O)c4ccccc4c3CCCl)[nH]c2c(OC)c1OC [Compound 26, 4-(2-Chloroethyl)-3-(5,6,7-trimethoxyindole-2-carboxamido)-1-naphthol]
[1]
  range of activity: micromolar range
  activity against leukemia cells: none of these compounds showed much activity
  activity against melanoma cells: active
  activity against solid tumors cells: strong activity
Supercoil pBR322 DNA; [7]
  Form I DNA (%): 0%
  Form II DNA (%): quantitative
Plasmid pBR322 DNA
  covalent DNA AT sequence selectivity: preferentially at a five consecutive A(865)AAAA sequence

## N-[(N-(4-Aminobutyl)-N-methylimidazole-4-(N-methylpyrrole-2-carboxamido)-2-carboxamido)]-N-[5-(4-(2-chloroethyl)phenol-3-yl)benzofuran-2-carboxamido)]glutarodiamide hydrochloride [Compound 19]
P815 mastocytoma cells
  IC50: > 100 µM
L1210 leukemia cells
  IC50: > 100 µM
Supercoil pBR322 DNA
  Form II DNA (%): quantitative
Plasmid pBR322 DNA
  additional unique alkylation site: 3′-(G)CA-5′
  alkylation of the 5′-AAAAA sequence: did not alkylate
  alkylation selectivity (sequence): 3′-ATTT-5′

## CCCC(=O)Nc1cc(C(=O)Nc2cc(C(=O)Nc3ccc(O)cc3CCCl)n(C)c2)n(C)c1 [Compound 6, N-(2-(2-Chloroethyl)-4-hydroxyphenyl)-1-methyl-4-(1-methyl-4-butanamidopyrrole-2-carboxamido)pyrrole-2-carboxamide]
[3]; [8]
  IC50: > 30 µM
